Measurements as given in ChEMBL document CHEMBL1152270, “Cobalt-alkyne complexes with imidazoline ligands as estrogenic carriers: synthesis and pharmacological investigations” (J Med Chem, 2008).
pEC50: −log10 of the molar value. Active and inactive are the calls of the source. The rule behind the calls is not given here.

Assays:
[1] = target: T1, Estrogen receptor (Homo sapiens, UniProt P03372); experiment: Transactivation of ERalpha in human MCF7-2a cells assessed as luciferase reporter gene expression; format: cell-based
T1 sequence (P03372 whole entry): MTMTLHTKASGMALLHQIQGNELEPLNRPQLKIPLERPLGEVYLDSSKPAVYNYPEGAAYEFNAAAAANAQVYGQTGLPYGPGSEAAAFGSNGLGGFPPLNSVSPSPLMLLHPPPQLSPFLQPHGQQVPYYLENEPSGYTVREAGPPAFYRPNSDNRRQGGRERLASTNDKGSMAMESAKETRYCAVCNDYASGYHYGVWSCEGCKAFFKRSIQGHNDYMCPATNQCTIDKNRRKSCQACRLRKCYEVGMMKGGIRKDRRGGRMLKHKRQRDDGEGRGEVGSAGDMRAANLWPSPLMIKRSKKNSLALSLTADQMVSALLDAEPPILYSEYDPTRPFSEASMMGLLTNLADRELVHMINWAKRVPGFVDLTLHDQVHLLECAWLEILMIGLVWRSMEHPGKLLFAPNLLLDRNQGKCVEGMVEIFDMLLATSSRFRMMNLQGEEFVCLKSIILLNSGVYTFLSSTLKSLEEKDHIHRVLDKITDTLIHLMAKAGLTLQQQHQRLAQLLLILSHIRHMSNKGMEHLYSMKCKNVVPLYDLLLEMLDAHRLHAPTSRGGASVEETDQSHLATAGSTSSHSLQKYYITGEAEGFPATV

[2] = test system: MCF7; experiment: Antiproliferative activity against human MCF7 cells; format: functional, cell-based
[3] = test system: MDA-MB-231; experiment: Antiproliferative activity against human MDA-MB-231 cells; format: functional, cell-based
[4] = target: T2, Estrogen receptor (Homo sapiens) (UniProt P03372); experiment: Transactivation of ERalpha in human MCF7-2a cells assessed as luciferase reporter gene expression at 1 uM relative to estradiol; format: cell-based
T2 sequence (whole entry): T1 sequence (P03372 whole entry)

`C#CCN1C=NC(c2ccc(O)cc2Cl)C1c1ccc(O)cc1Cl` (stereo unspecified) was tested. Which pEC50 [1] did it give?
Its pEC50 is 8.00.

And the Activity [2]?
Its Activity is “inactive”.

What about the Activity [3] of the same compound?
The Activity was “inactive”.

Which Activity [4] does the source give for `C#CCN1C=NC(c2ccc(OC)cc2Cl)C1c1ccc(OC)cc1Cl` (stereo unspecified) here?
Its Activity is 13%.

What about the Activity [2] of the same compound?
Its Activity is “inactive”.

And the Activity [3]?
The Activity was “inactive”.
